In publication PMC9481151, “Discovery of new symmetrical and asymmetrical nitrile-containing 1,4-dihydropyridine derivatives as dual kinases and P-glycoprotein inhibitors: synthesis, in vitro assays, and in silico studies” (Journal of Enzyme Inhibition and Medicinal Chemistry, 2022):

How the values were obtained:
A498 = assay: NCI single dose (10 µM) SRB screen; format: cell-based, human; conditions: renal cancer, 48 h
SN12C = assay: NCI single dose (10 µM) SRB screen; format: cell-based, human; conditions: renal cancer, 48 h
HCT-116 = assay: NCI single dose (10 µM) SRB screen; format: cell-based, human; conditions: colon cancer, 48 h
CCRF-CEM = assay: NCI single dose (10 µM) SRB screen; format: cell-based, human; conditions: leukaemia, 48 h
MOLT-4 = assay: NCI single dose (10 µM) SRB screen; format: cell-based, human; conditions: leukaemia, 48 h
OVCAR-5 = assay: NCI single dose (10 µM) SRB screen; format: cell-based, human; conditions: ovarian cancer, 48 h
MDA-MB-435 = assay: NCI single dose (10 µM) SRB screen; format: cell-based, human; conditions: melanoma, 48 h
BT-549 = assay: NCI single dose (10 µM) SRB screen; format: cell-based, human; conditions: breast cancer, 48 h
SF-539 = assay: NCI single dose (10 µM) SRB screen; format: cell-based, human; conditions: CNS cancer, 48 h
T-47D = assay: NCI single dose (10 µM) SRB screen; format: cell-based, human; conditions: breast cancer, 48 h
Aspergillus flavus = assay: Agar well diffusion method
SF-268 = assay: NCI single dose (10 µM) SRB screen; format: cell-based, human; conditions: CNS cancer, 48 h
NCI-H460 = assay: NCI single dose (10 µM) SRB screen; format: cell-based, human; conditions: non-small cell lung cancer, 48 h
EKVX = assay: NCI single dose (10 µM) SRB screen; format: cell-based, human; conditions: non-small cell lung cancer, 48 h
OVCAR-4 = assay: NCI single dose (10 µM) SRB screen; format: cell-based, human; conditions: ovarian cancer, 48 h
HL-60(TB) = assay: NCI single dose (10 µM) SRB screen; format: cell-based, human; conditions: leukaemia, 48 h
SNB-75 = assay: NCI single dose (10 µM) SRB screen; format: cell-based, human; conditions: CNS cancer, 48 h
SF-295 = assay: NCI single dose (10 µM) SRB screen; format: cell-based, human; conditions: CNS cancer, 48 h
U251 = assay: NCI single dose (10 µM) SRB screen; format: cell-based, human; conditions: CNS cancer, 48 h
786-0 = assay: NCI single dose (10 µM) SRB screen; format: cell-based, human; conditions: renal cancer, 48 h
Staphylococcus aureus = assay: Agar well diffusion method
SK-MEL-2 = assay: NCI single dose (10 µM) SRB screen; format: cell-based, human; conditions: melanoma, 48 h
MALME-3M = assay: NCI single dose (10 µM) SRB screen; format: cell-based, human; conditions: melanoma, 48 h
LOX IMVI = assay: NCI single dose (10 µM) SRB screen; format: cell-based, human; conditions: melanoma, 48 h
HS578T = assay: NCI single dose (10 µM) SRB screen; format: cell-based, human; conditions: breast cancer, 48 h
HCC-2998 = assay: NCI single dose (10 µM) SRB screen; format: cell-based, human; conditions: colon cancer, 48 h
HOP-92 = assay: NCI single dose (10 µM) SRB screen; format: cell-based, human; conditions: non-small cell lung cancer, 48 h
UACC-257 = assay: NCI single dose (10 µM) SRB screen; format: cell-based, human; conditions: melanoma, 48 h
PC-3 = assay: NCI single dose (10 µM) SRB screen; format: cell-based, human; conditions: prostate cancer, 48 h
MDA-MB-468 = assay: NCI single dose (10 µM) SRB screen; format: cell-based, human; conditions: breast cancer, 48 h
SNB-19 = assay: NCI single dose (10 µM) SRB screen; format: cell-based, human; conditions: CNS cancer, 48 h
SK-OV-3 = assay: NCI single dose (10 µM) SRB screen; format: cell-based, human; conditions: ovarian cancer, 48 h
M14 = assay: NCI single dose (10 µM) SRB screen; format: cell-based, human; conditions: melanoma, 48 h
NCI-H322M = assay: NCI single dose (10 µM) SRB screen; format: cell-based; conditions: non-small cell lung cancer, 48 h
NCI/ADR-RES = assay: NCI single dose (10 µM) SRB screen; format: cell-based, human; conditions: ovarian cancer, 48 h
MDA-MB-231 = assay: NCI single dose (10 µM) SRB screen; format: cell-based, human; conditions: breast cancer, 48 h
A549/ATCC = assay: NCI single dose (10 µM) SRB screen; format: cell-based, human; conditions: non-small cell lung cancer, 48 h
NCI-H23 = assay: NCI single dose (10 µM) SRB screen; format: cell-based, human; conditions: non-small cell lung cancer, 48 h
K-562 = assay: NCI single dose (10 µM) SRB screen; format: cell-based, human; conditions: leukaemia, 48 h
IGROV1 = assay: NCI single dose (10 µM) SRB screen; format: cell-based, human; conditions: ovarian cancer, 48 h
HT29 = assay: NCI single dose (10 µM) SRB screen; format: cell-based, human; conditions: colon cancer, 48 h
HCT-15 = assay: NCI single dose (10 µM) SRB screen; format: cell-based, human; conditions: colon cancer, 48 h
NCI 60 cancer cell lines = assay: NCI single dose (10 µM) SRB screen, mean over panel; format: cell-based, human; conditions: mean over 60 cell lines, 48 h
TK-10 = assay: NCI single dose (10 µM) SRB screen; format: cell-based, human; conditions: renal cancer, 48 h
UO-31 = assay: NCI single dose (10 µM) SRB screen; format: cell-based, human; conditions: renal cancer, 48 h
Candida albicans = assay: Agar well diffusion method
OVCAR-8 = assay: NCI single dose (10 µM) SRB screen; format: cell-based, human; conditions: ovarian cancer, 48 h
RPMI-8226 = assay: NCI single dose (10 µM) SRB screen; format: cell-based, human; conditions: leukaemia, 48 h
CAKI-1 = assay: NCI single dose (10 µM) SRB screen; format: cell-based, human; conditions: renal cancer, 48 h
COLO 205 = assay: NCI single dose (10 µM) SRB screen; format: cell-based, human; conditions: colon cancer, 48 h
ACHN = assay: NCI single dose (10 µM) SRB screen; format: cell-based, human; conditions: renal cancer, 48 h
OVCAR-3 = assay: NCI single dose (10 µM) SRB screen; format: cell-based, human; conditions: ovarian cancer, 48 h
RXF 393 = assay: NCI single dose (10 µM) SRB screen; format: cell-based, human; conditions: renal cancer, 48 h

CCOC(=O)C1=C(C)NC(C)=C(C(=O)OC(C)C)C1c1cccc(C#N)c1 (racemic) [Compound 2h, (±)-3-Ethyl 5-isopropyl 4-(3-cyanophenyl)-2,6-dimethyl-1,4-dihydropyridine-3,5-dicarboxylate]
12 mm: zone of inhibition at 1000 µg/mL (Aspergillus flavus; Aspergillus flavus, 24 h, read-out: Diameter of inhibition zone, A. flavus)
29.6%: % activity index, C. albicans (Candida albicans; relative to clotrimazole)
15%: GI% SNB-75 (SNB-75) | GI% CAKI-1 (CAKI-1)
8 mm: zone of inhibition at 1000 µg/mL (Candida albicans; Candida albicans, 24 h, read-out: Diameter of inhibition zone, C. albicans)
16%: GI% A498 (A498)
– (Only GI% ≥ 10 are shown): GI% SN12C (SN12C) | GI% HCT-116 (HCT-116) | GI% CCRF-CEM (CCRF-CEM) | GI% OVCAR-5 (OVCAR-5) | GI% MDA-MB-435 (MDA-MB-435) | GI% BT-549 (BT-549) | GI% SF-539 (SF-539) | GI% T-47D (T-47D) | GI% SF-268 (SF-268) | GI% NCI-H460 (NCI-H460) | GI% EKVX (EKVX) | GI% OVCAR-4 (OVCAR-4) | GI% HL-60(TB) (HL-60(TB)) | GI% SF-295 (SF-295) | GI% U251 (U251) | GI% 786-0 (786-0) | GI% SK-MEL-2 (SK-MEL-2) | GI% MALME-3M (MALME-3M) | GI% LOX IMVI (LOX IMVI) | GI% HS578T (HS578T) | GI% HCC-2998 (HCC-2998) | GI% HOP-92 (HOP-92) | GI% UACC-257 (UACC-257) | GI% SNB-19 (SNB-19) | GI% SK-OV-3 (SK-OV-3) | GI% M14 (M14) | GI% NCI-H322M (NCI-H322M) | GI% NCI/ADR-RES (NCI/ADR-RES) | GI% MDA-MB-231 (MDA-MB-231) | GI% A549/ATCC (A549/ATCC) | GI% NCI-H23 (NCI-H23) | GI% K-562 (K-562) | GI% IGROV1 (IGROV1) | GI% HT29 (HT29) | GI% HCT-15 (HCT-15) | GI% TK-10 (TK-10) | GI% UO-31 (UO-31) | GI% OVCAR-8 (OVCAR-8) | GI% RPMI-8226 (RPMI-8226) | GI% COLO 205 (COLO 205) | GI% ACHN (ACHN) | GI% OVCAR-3 (OVCAR-3) | GI% RXF 393 (RXF 393)
45.8%: % activity index, S. aureus (Staphylococcus aureus; relative to ciprofloxacin)
12%: GI% PC-3 (PC-3)
0%: Mean GI% (NCI 60 cancer cell lines)
48%: % activity index, A. flavus (Aspergillus flavus; relative to clotrimazole)
11%: GI% MOLT-4 (MOLT-4)
20%: GI% MDA-MB-468 (MDA-MB-468)
11 mm: zone of inhibition at 1000 µg/mL (Staphylococcus aureus; Staphylococcus aureus, 24 h, read-out: Diameter of inhibition zone, S. aureus)
